What was measured:
MKK4 [1] = molecular target: T1, MKK4 (Homo sapiens, UniProt P45985); assay: KINOMEscan competition binding assay, MKK4; conditions: residual percent of control binding (PoC) at 100 nM
T1 construct: S84/D399; host or cells: HEK-293
T1 sequence (P45985 84-399): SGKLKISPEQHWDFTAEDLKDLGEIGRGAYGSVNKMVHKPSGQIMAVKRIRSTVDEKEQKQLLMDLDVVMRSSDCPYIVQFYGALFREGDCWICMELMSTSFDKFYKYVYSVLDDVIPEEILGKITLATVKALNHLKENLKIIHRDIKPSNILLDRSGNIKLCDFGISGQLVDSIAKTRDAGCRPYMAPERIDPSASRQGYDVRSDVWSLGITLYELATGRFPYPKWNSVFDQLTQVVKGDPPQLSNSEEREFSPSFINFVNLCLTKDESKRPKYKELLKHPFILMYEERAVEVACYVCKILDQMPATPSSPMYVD
How it was run: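 Tested at 100 nM and reported as percent of control binding (PoC). MKK4 was produced in HEK-293 cells and DNA-tagged. Displacement from ligand-coated, blocked beads was read by qPCR of eluted kinase.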

BRaf = molecular target: T2, BRaf (Homo sapiens, UniProt P15056); assay: KINOMEscan competition binding assay, BRaf; conditions: ratio PoC (off-target)/PoC (MKK4)
T2 construct: purchased ProQinase GmbH, Freiburg, Germany (33PanQinase Assay Service)
T2 sequence (P15056 whole entry, species assumed): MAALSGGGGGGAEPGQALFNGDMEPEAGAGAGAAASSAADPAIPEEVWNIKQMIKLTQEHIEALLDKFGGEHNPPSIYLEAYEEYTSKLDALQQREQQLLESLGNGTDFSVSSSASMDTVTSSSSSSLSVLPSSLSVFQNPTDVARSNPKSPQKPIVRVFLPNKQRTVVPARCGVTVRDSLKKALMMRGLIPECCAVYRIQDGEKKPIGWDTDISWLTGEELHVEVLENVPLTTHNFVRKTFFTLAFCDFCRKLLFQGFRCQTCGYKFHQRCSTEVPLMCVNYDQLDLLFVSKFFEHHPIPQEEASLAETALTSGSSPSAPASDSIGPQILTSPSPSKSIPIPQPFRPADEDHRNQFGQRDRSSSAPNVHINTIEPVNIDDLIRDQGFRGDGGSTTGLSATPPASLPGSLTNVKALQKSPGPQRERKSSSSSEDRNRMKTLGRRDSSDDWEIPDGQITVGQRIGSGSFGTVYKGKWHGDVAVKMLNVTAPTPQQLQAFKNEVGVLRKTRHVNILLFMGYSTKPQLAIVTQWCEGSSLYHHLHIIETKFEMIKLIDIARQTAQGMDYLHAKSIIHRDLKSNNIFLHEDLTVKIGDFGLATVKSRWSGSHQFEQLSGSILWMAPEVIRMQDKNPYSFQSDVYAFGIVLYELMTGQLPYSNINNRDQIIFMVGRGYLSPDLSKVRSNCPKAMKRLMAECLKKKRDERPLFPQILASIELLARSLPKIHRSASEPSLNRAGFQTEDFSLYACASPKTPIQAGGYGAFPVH
How it was run: (§1)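 DNA-tagged kinases expressed in HEK-293 cells compete between immobilized ligand on blocked beads and test compound at 100 nM; kinase retained on beads quantified by qPCR of the tag.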

MKK4 [2] = molecular target: T3, MKK4 (Homo sapiens, UniProt P45985); assay: 33PanQinase enzyme assay, MKK4; format: biochemical; conditions: for IC50: assay 'IC50', read-out: Potency MKK4 (IC50); for remaining activity at 0.1 µM: single concentration 100 nM, read-out: Potency MKK4 (residual activity, assay at single concentration)
T3 construct: purchased ProQinase GmbH, Freiburg, Germany (33PanQinase Assay Service)
T3 sequence (P45985 1-399): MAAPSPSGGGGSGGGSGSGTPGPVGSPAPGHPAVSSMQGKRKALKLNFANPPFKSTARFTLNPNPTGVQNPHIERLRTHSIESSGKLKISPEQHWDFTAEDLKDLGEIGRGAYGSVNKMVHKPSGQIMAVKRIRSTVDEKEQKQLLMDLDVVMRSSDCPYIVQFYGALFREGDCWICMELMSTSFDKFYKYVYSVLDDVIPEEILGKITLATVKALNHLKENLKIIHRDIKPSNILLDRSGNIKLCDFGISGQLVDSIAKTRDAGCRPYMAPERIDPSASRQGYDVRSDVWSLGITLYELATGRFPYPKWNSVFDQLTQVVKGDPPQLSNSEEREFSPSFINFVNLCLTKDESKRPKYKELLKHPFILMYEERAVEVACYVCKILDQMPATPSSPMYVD
How it was run: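 Inhibition measured as 33Pi transfer to substrate after a 60-min, 30 °C reaction, acid-stopped and scintillation-counted.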

MKK7 [3] = molecular target: T4, MKK7 (Homo sapiens, UniProt O14733); assay: KINOMEscan competition binding assay, MKK7; set-up: M1/R419; host or cells: HEK-293; conditions: ratio PoC (off-target)/PoC (MKK4)
T4 sequence (O14733 1-419): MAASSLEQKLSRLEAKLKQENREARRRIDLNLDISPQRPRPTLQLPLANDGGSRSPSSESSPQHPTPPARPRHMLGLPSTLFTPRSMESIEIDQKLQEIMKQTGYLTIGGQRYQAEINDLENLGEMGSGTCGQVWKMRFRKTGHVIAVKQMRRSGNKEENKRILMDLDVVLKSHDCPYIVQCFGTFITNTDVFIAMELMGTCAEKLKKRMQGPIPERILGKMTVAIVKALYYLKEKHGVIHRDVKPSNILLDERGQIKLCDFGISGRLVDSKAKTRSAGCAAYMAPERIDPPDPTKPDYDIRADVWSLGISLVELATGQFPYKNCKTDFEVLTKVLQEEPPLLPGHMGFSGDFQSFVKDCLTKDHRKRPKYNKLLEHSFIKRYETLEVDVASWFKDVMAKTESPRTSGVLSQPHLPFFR
How it was run: as §1

JNK1 [4] = molecular target: T5, JNK1 (Homo sapiens, UniProt P45983); assay: KINOMEscan competition binding assay, JNK1; set-up: M1/Q384; host or cells: HEK-293; conditions: ratio PoC (off-target)/PoC (MKK4)
How it was run: as §1
Target sequence in this assay (P45983 1-384 isoform P45983-2): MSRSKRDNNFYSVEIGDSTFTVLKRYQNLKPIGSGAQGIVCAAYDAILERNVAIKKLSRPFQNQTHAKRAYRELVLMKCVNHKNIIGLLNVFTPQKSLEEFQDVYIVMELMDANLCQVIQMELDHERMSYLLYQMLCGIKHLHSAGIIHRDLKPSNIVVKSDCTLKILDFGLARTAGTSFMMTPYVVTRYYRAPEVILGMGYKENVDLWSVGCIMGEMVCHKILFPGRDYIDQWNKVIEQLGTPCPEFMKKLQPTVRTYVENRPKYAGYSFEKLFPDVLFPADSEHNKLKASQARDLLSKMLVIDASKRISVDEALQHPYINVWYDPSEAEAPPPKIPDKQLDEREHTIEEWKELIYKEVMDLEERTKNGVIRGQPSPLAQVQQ

JNK1 [5] = molecular target: T5, JNK1; assay: 33PanQinase enzyme assay, JNK1; format: biochemical; set-up: purchased ProQinase GmbH, Freiburg, Germany (33PanQinase Assay Service); conditions: ratio IC50(JNK1)/IC50(MKK4)
How it was run: (§2)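 Off-target selectivity is the ratio IC50(off-target)/IC50(MKK4), with IC50 values from least-squares fitting and single-point data as % residual activity. Reactions of enzyme/substrate mix, ATP and compound ran 60 min at 30° C before H3PO4 stop; ^33P incorporation read on a scintillation counter.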
Target sequence in this assay (P45983 whole entry): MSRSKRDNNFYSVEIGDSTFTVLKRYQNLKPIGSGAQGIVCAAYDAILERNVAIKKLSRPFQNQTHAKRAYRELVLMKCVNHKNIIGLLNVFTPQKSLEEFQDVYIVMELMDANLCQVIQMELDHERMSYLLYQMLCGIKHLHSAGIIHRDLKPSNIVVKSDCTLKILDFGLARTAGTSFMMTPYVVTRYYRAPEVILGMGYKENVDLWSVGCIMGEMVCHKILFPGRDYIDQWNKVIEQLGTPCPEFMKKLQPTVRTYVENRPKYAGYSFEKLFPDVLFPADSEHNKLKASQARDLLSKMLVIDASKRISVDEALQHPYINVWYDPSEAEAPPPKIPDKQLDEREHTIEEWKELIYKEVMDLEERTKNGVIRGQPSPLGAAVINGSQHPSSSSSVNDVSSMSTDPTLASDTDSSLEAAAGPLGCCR

MKK7 [6] = molecular target: T4, MKK7; assay: 33PanQinase enzyme assay, MKK7; format: biochemical; set-up: purchased ProQinase GmbH, Freiburg, Germany (33PanQinase Assay Service); conditions: ratio IC50(MKK7)/IC50(MKK4)
How it was run: as §2

SMILES | MKK4 [% Ctrl @ 100 nM (MKK4 [1]) | selectivity based on % Ctrl @100 nM vs. Braf (BRaf) | IC50 (MKK4 [2]) | selectivity based on % Ctrl @100 nM vs. MKK7 (MKK7 [3]) | selectivity based on % Ctrl @100 nM vs. JNK1 (JNK1 [4]) | Selectivity JNK1, IC50(off-target)/IC50(MKK4) (JNK1 [5]) | remaining activity at 0.1 µM (MKK4 [2]) | Selectivity IVIKK7, IC50(off-target)/IC50(MKK4) (MKK7 [6])
CCCS(=O)(=O)Nc1ccc(F)c(C(=O)c2c[nH]c3ncc(-c4ccnnc4)cc23)c1F [Example 49] | +++ (PoC < 1) | ◯ (3 ≥ Ratio) | 1000 to 10000 nM | +++ (Ratio > 100) | +++ (Ratio > 100) | ++ (100 ≥ IC50(off-target)/IC50(MKK4) > 10) |  | ++ (100 ≥ IC50(off-target)/IC50(MKK4) > 10)
CCCS(=O)(=O)Nc1ccc(F)c(C(=O)c2c[nH]c3ncc(-c4cnc[nH]4)cc23)c1F [Example 83, N-(3-(5-(1H-imidazol-5-yl)-1H-pyrrolo[2,3-b]pyridine-3-carbonyl)-2,4-difluorophenyl)propane-1-sulfonamide] | +++ (PoC < 1) | ◯ (3 ≥ Ratio) | 100 to 1000 nM | +++ (Ratio > 100) | +++ (Ratio > 100) | ◯ (3 ≥ IC50(off-target)/IC50(MKK4)) |  | ++·
CCCS(=O)(=O)Nc1ccc(F)c(C(=O)c2c[nH]c3ncc(-c4ccn[nH]4)cc23)c1F [Example 84, N-(3-(5-(1H-pyrazol-5-yl)-1H-pyrrolo[2,3-b]pyridine-3-carbonyl)-2,4-difluorophenyl)propane-1-sulfonamide] | +++ (PoC < 1) | ◯ (3 ≥ Ratio) | 100 to 1000 nM | +++ (Ratio > 100) | +++ (Ratio > 100) | ◯ (3 ≥ IC50(off-target)/IC50(MKK4)) |  | +++ (IC50(off-target)/IC50(MKK4) > 100)
CCCS(=O)(=O)Nc1ccc(F)c(C(=O)c2c[nH]c3ncc(-c4nc[nH]n4)cc23)c1F [Example 85, N-(3-(5-(1H-1,2,4-triazol-3-yl)-1H-pyrrolo[2,3-b]pyridine-3-carbonyl)-2,4-difluorophenyl)propane-1-sulfonamide] | + (3 ≤ PoC < 30) | ◯ (3 ≥ Ratio) | 1000 to 10000 nM | ++ (100 ≥ ratio > 10) | ++ (100 ≥ ratio > 10) | ◯ (3 ≥ IC50(off-target)/IC50(MKK4)) |  | ++ (100 ≥ IC50(off-target)/IC50(MKK4) > 10)
CCCS(=O)(=O)Nc1ccc(F)c(C(=O)c2c[nH]c3ncc(-c4nncs4)cc23)c1F [Example 86, N-(3-(5-(1,3,4-thiadiazol-2-yl)-1H-pyrrolo[2,3-b]pyridine-3-carbonyl)-2,4-difluorophenyl)propane-1-sulfonamide] | + (3 ≤ PoC < 30) | ◯ (3 ≥ Ratio) | 1000 to 10000 nM | ++ (100 ≥ ratio > 10) | ++ (100 ≥ ratio > 10) | ◯ (3 ≥ IC50(off-target)/IC50(MKK4)) |  | ++ (100 ≥ IC50(off-target)/IC50(MKK4) > 10)
CCCS(=O)(=O)Nc1ccc(F)c(C(=O)c2c[nH]c3ncc(-c4csc(SC)n4)cc23)c1F [Example 87, N-(2,4-difluoro-3-(5-(2-(methylthio)thiazol-4-yl)-1H-pyrrolo[2,3-b]pyridine-3-carbonyl)phenyl)propane-1-sulfonamide] | ◯ (30 ≤ PoC) | ◯ (3 ≥ Ratio) | > 10000 nM | ◯ (3 ≥ Ratio) | ◯ (3 ≥ Ratio) | ◯ (3 ≥ IC50(off-target)/IC50(MKK4)) |  | ◯ (3 ≥ IC50(off-target)/IC50(MKK4))

Now from value to compound, other results behind:

MKK4 [% Ctrl @ 100 nM (MKK4 [1]) | selectivity based on % Ctrl @100 nM vs. Braf (BRaf) | IC50 (MKK4 [2]) | selectivity based on % Ctrl @100 nM vs. MKK7 (MKK7 [3]) | selectivity based on % Ctrl @100 nM vs. JNK1 (JNK1 [4]) | Selectivity JNK1, IC50(off-target)/IC50(MKK4) (JNK1 [5]) | remaining activity at 0.1 µM (MKK4 [2]) | SMILES | Selectivity IVIKK7, IC50(off-target)/IC50(MKK4) (MKK7 [6])
+++ (PoC < 1) | ++ (100 ≥ ratio > 10) | 100 to 1000 nM | +++ (Ratio > 100) | +++ (Ratio > 100) | ◯ (3 ≥ IC50(off-target)/IC50(MKK4)) |  | CCCS(=O)(=O)Nc1ccc(F)c(C(=O)c2c[nH]c3ncc(-c4cccnc4)cc23)c1F [Example 58] | ++ (100 ≥ IC50(off-target)/IC50(MKK4) > 10)
+ (3 ≤ PoC < 30) | ++ (100 ≥ ratio > 10) | 1000 to 10000 nM | ++ (100 ≥ ratio > 10) | ++ (100 ≥ ratio > 10) |  |  | CCCS(=O)(=O)Nc1ccc(Br)c(C(=O)c2c[nH]c3ncc(-c4ccc(Cl)cc4)cc23)c1F [Example 60, N-(4-bromo-3-(5-(4-chlorophenyl)-1H-pyrrolo[2,3-b]pyridine-3-carbonyl)-2-fluorophenyl)propane-1-sulfonamide] | 
◯ (30 ≤ PoC) | ◯ (3 ≥ Ratio) |  | + (10 ≥ ratio > 3) | + (10 ≥ ratio > 3) |  | > 90% | CCCS(=O)(=O)Nc1ccc(C#N)c(C(=O)c2c[nH]c3ncc(-c4ccc(Cl)cc4)cc23)c1F [Example 61, N-(3-(5-(4-chlorophenyl)-1H-pyrrolo[2,3-b]pyridine-3-carbonyl)-4-cyano-2-fluorophenyl)propane-1-sulfonamide] | 
◯ (30 ≤ PoC) | ◯ (3 ≥ Ratio) |  | ◯ (3 ≥ Ratio) | ◯ (3 ≥ Ratio) |  | > 90% | CCCS(=O)(=O)Nc1ccc(C#N)c(C(=O)c2c[nH]c3ncc(-c4ccc(Cl)cc4)cc23)c1C#N [Example 62, N-(3-(5-(4-chlorophenyl)-1H-pyrrolo[2,3-b]pyridine-3-carbonyl)-2,4-dicyanophenyl)propane-1-sulfonamide] | 
◯ (30 ≤ PoC) | ◯ (3 ≥ Ratio) |  | ◯ (3 ≥ Ratio) | ◯ (3 ≥ Ratio) |  | 50 to 70% | CCCS(=O)(=O)Nc1cccc(C(=O)c2c[nH]c3ncc(-c4ccc(Cl)cc4)cc23)c1C#N [Example 63, N-(3-(5-(4-chlorophenyl)-1H-pyrrolo[2,3-b]pyridine-3-carbonyl)-2-cyanophenyl)propane-1-sulfonamide] | 
◯ (30 ≤ PoC) | ◯ (3 ≥ Ratio) |  | ◯ (3 ≥ Ratio) | ◯ (3 ≥ Ratio) |  | > 90% | O=C(c1c(F)ccc(NS(=O)(=O)CCCO)c1F)c1c[nH]c2ncc(-c3ccc(Cl)cc3)cc12 [Example 67, N-(3-(5-(4-chlorophenyl)-1H-pyrrolo[2,3-b]pyridine-3-carbonyl)-2,4-difluorophenyl)-3-hydroxypropane-1-sulfonamide] | 

From patent publication US11912701B2, “Protein kinase inhibitors for promoting liver regeneration or reducing or preventing hepatocyte death” (HEPAREGENIX GMBH, priority 2018, dated 2024)
